Test results published in US11000033B2, “Ketone or oxime compound, and herbicide” (NISSAN CHEMICAL CORPORATION, priority 2014, dated 2021).

Experiments:
Assay type in all cases: in vivo
transplanted rice plant = assay: Test Example 1: effect on crop, application before weed generation in submerged conditions (symbol a); details: application herbicide amount 320 g/ha
Procedure, shortened: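 Alluvial soil pots flooded to 4 cm water, sown with Echinochloa oryzacola, Scirpus juncoides and Monochoria vaginalis, then transplanted with 2.5 leaf stage rice seedlings; pre-emergence application. Greenhouse 25° C. to 30° C.; scored 0–5 by herbicidal ratio 3 weeks after application.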

[1] = system: Echinochloa oryzacola Vasing.; assay: Test Example 2: herbicidal activity, application during weed generation in submerged conditions (symbol A); details: Table 23; application herbicide amount 320 g/ha; grade 0-5 by criteria of Test Example 1
Procedure, shortened: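 Steps: fill pots with alluvial soil; add water to 4 cm depth; co-sow the three weeds; grow at 25° C. to 30° C. under glass; at 1–2 leaves, dose the floodwater with diluted emulsion; rate damage visually after 3 weeks.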

Cyperus difformis = assay: Test Example 3: herbicidal effect by foliage application, Wagner pot (symbol E); details: application herbicide amount 320 g/ha
Procedure, shortened: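 Post-emergence, paddy-type test: seedlings 14 d old in shallow-flooded (0.1–0.5 cm) alluvial soil, 25–30 °C greenhouse. Emulsion diluted to target rate, sprayed on leaves. Read-out: visual effect on each species at 3 weeks, per set criteria.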

Digitaria ciliaris = assay: Test Example 4: herbicidal effect by soil treatment (symbol F); details: 320 g/ha
Procedure, shortened: (§1)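 Seeds were sown in sterilized diluvial soil, covered with about 1.5 cm of soil, and the soil surface was sprayed with a water-diluted emulsion of the compound at a predetermined rate. Plants grew in a greenhouse at 25° C. to 30° C.; effects were scored visually 3 weeks after application.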

Avena fatua = assay: Test Example 4: herbicidal effect by soil treatment (symbol I); details: 320 g/ha
Procedure, shortened: as §1

soybean = assay: Test Example 4: effect on crop by soil treatment (symbol d); details: 320 g/ha
Procedure, shortened: (§2)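 Grown at 25° C. to 30° C. in a greenhouse, the crops came from seed sown spot-wise in sterilized diluvial soil under roughly 1.5 cm of covering soil.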

rice = assay: Test Example 4: effect on crop by soil treatment (symbol b); details: 320 g/ha
Procedure, shortened: as §2

wheat = assay: Test Example 4: effect on crop by soil treatment (symbol e); details: 320 g/ha
Procedure, shortened: as §2

rapeseed = assay: Test Example 4: effect on crop by soil treatment (symbol g); details: 320 g/ha
Procedure, shortened: as §2

Stellaria media = assay: Test Example 5: herbicidal effect by foliage application, plastic box (symbol P); details: 320 g/ha, 3 weeks after application
Procedure, shortened: (§3)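 Visual herbicidal score, taken three weeks post-application, of seedlings sprayed on the foliage with water-diluted emulsion at a predetermined amount; plants were 14 days old, greenhouse-raised at 25° C. to 30° C.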

Galium spurium = assay: Test Example 5: herbicidal effect by foliage application, plastic box (symbol Q); details: 320 g/ha, 3 weeks after application
Procedure, shortened: as §3

corn = assay: Test Example 5: effect on crop by foliage application, plastic box (symbol c); details: 320 g/ha, 3 weeks after application
Procedure, shortened: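 Box culture: sterile diluvial soil, seeds spot-sown, ~1.5 cm cover, raised under glass at 25–30° C.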

Structure (SMILES) | Effect grade on crop, a: transplanted rice plant (transplanted rice plant) | Herbicidal effect grade, A: Echinochloa oryzacola Vasing. [1] | herbicidal effect on E, grade 0-5 (Cyperus difformis) | F: Digitaria ciliaris, herbicidal effect grade (Digitaria ciliaris) | I: Avena fatua, herbicidal effect grade (Avena fatua) | d: soybean, effect grade on crop (soybean) | b: directly sowed rice plant, effect grade on crop (rice) | e: wheat, effect grade on crop (wheat) | g: rapeseed, effect grade on crop (rapeseed) | P: Stellaria media, herbicidal effect (criteria 0-5) (Stellaria media) | Q: Galium spurium, herbicidal effect (criteria 0-5) (Galium spurium) | c: corn, effect on crop (criteria 0-5) (corn)
CON=C(C)CC1CC(OC(=O)COc2ccc(Br)cc2)=C(c2c(C)cc(C)cc2C)C1=O (stereo not drawn) [1-081] | 5 (Herbicidal ratio of 90% or more (almost completely withered)) | 5 (Herbicidal ratio of 90% or more (almost completely withered)) | 5 (Herbicidal ratio of 90% or more (almost completely withered)) | 5 (Herbicidal ratio of 90% or more (almost completely withered)) | 3 (Herbicidal ratio of 40% or higher and lower than 70%) | 1 (Herbicidal ratio of 5% or higher and lower than 20%) | 5 (Herbicidal ratio of 90% or more (almost completely withered)) | 4 (Herbicidal ratio of 70% or higher and lower than 90%) | 4 (Herbicidal ratio of 70% or higher and lower than 90%) | 0 (Herbicidal ratio of 5% or lower (almost no effect)) | 0 (Herbicidal ratio of 5% or lower (almost no effect)) | 5 (Herbicidal ratio of 90% or more (almost completely withered))
CON=C(C)CC1CC(OC(=O)COc2ccc(I)cc2)=C(c2c(C)cc(C)cc2C)C1=O (stereo not drawn) [1-082] | 5 (Herbicidal ratio of 90% or more (almost completely withered)) | 5 (Herbicidal ratio of 90% or more (almost completely withered)) | 5 (Herbicidal ratio of 90% or more (almost completely withered)) | 5 (Herbicidal ratio of 90% or more (almost completely withered)) | 3 (Herbicidal ratio of 40% or higher and lower than 70%) | 2 (Herbicidal ratio of 20% or higher and lower than 40%) | 5 (Herbicidal ratio of 90% or more (almost completely withered)) | 3 (Herbicidal ratio of 40% or higher and lower than 70%) | 4 (Herbicidal ratio of 70% or higher and lower than 90%) | 0 (Herbicidal ratio of 5% or lower (almost no effect)) | 0 (Herbicidal ratio of 5% or lower (almost no effect)) | 5 (Herbicidal ratio of 90% or more (almost completely withered))
CON=C(C)CC1CC(OC(=O)COc2ccc3ccccc3c2)=C(c2c(C)cc(C)cc2C)C1=O (stereo not drawn) [1-083] | 5 (Herbicidal ratio of 90% or more (almost completely withered)) | 5 (Herbicidal ratio of 90% or more (almost completely withered)) | 5 (Herbicidal ratio of 90% or more (almost completely withered)) | 5 (Herbicidal ratio of 90% or more (almost completely withered)) | 3 (Herbicidal ratio of 40% or higher and lower than 70%) | 1 (Herbicidal ratio of 5% or higher and lower than 20%) | 5 (Herbicidal ratio of 90% or more (almost completely withered)) | 4 (Herbicidal ratio of 70% or higher and lower than 90%) | 4 (Herbicidal ratio of 70% or higher and lower than 90%) | 4 (Herbicidal ratio of 70% or higher and lower than 90%) | 0 (Herbicidal ratio of 5% or lower (almost no effect)) | 5 (Herbicidal ratio of 90% or more (almost completely withered))
CON=C(CC1CC(O)=C(c2c(C)cc(C)cc2C)C1=O)C1CCCCC1 (stereo not drawn) [1-085] | 3 (Herbicidal ratio of 40% or higher and lower than 70%) | 3 (Herbicidal ratio of 40% or higher and lower than 70%) | 0 (Herbicidal ratio of 5% or lower (almost no effect)) | 0 (Herbicidal ratio of 5% or lower (almost no effect)) | 0 (Herbicidal ratio of 5% or lower (almost no effect)) | 0 (Herbicidal ratio of 5% or lower (almost no effect)) | 5 (Herbicidal ratio of 90% or more (almost completely withered)) | 0 (Herbicidal ratio of 5% or lower (almost no effect)) | 0 (Herbicidal ratio of 5% or lower (almost no effect)) | 0 (Herbicidal ratio of 5% or lower (almost no effect)) | 0 (Herbicidal ratio of 5% or lower (almost no effect)) | 5 (Herbicidal ratio of 90% or more (almost completely withered))
C=CC(CC1CC(O)=C(c2c(C)cc(C)cc2C)C1=O)=NOC (stereo not drawn) [1-086] | 3 (Herbicidal ratio of 40% or higher and lower than 70%) | 5 (Herbicidal ratio of 90% or more (almost completely withered)) | 4 (Herbicidal ratio of 70% or higher and lower than 90%) | 2 (Herbicidal ratio of 20% or higher and lower than 40%) | 3 (Herbicidal ratio of 40% or higher and lower than 70%) | 0 (Herbicidal ratio of 5% or lower (almost no effect)) | 5 (Herbicidal ratio of 90% or more (almost completely withered)) | 0 (Herbicidal ratio of 5% or lower (almost no effect)) | 2 (Herbicidal ratio of 20% or higher and lower than 40%) | 0 (Herbicidal ratio of 5% or lower (almost no effect)) | 0 (Herbicidal ratio of 5% or lower (almost no effect)) | 3 (Herbicidal ratio of 40% or higher and lower than 70%)
CON=C(C)CC1CC(OC(=O)C(C)Oc2ccc(Oc3cnc4cc(Cl)ccc4n3)cc2)=C(c2c(C)cc(C)cc2C)C1=O (stereo not drawn) [1-087] | 5 (Herbicidal ratio of 90% or more (almost completely withered)) | 5 (Herbicidal ratio of 90% or more (almost completely withered)) | 5 (Herbicidal ratio of 90% or more (almost completely withered)) | 5 (Herbicidal ratio of 90% or more (almost completely withered)) | 3 (Herbicidal ratio of 40% or higher and lower than 70%) | 2 (Herbicidal ratio of 20% or higher and lower than 40%) | 5 (Herbicidal ratio of 90% or more (almost completely withered)) | 5 (Herbicidal ratio of 90% or more (almost completely withered)) | 5 (Herbicidal ratio of 90% or more (almost completely withered)) | 3 (Herbicidal ratio of 40% or higher and lower than 70%) | 4 (Herbicidal ratio of 70% or higher and lower than 90%) | 5 (Herbicidal ratio of 90% or more (almost completely withered))
CON=C(C)CC1CC(OC(=O)C2=CCCC2)=C(c2c(C)cc(C)cc2C)C1=O (stereo not drawn) [1-088] | 5 (Herbicidal ratio of 90% or more (almost completely withered)) | 5 (Herbicidal ratio of 90% or more (almost completely withered)) | 5 (Herbicidal ratio of 90% or more (almost completely withered)) | 5 (Herbicidal ratio of 90% or more (almost completely withered)) | 3 (Herbicidal ratio of 40% or higher and lower than 70%) | 0 (Herbicidal ratio of 5% or lower (almost no effect)) | 5 (Herbicidal ratio of 90% or more (almost completely withered)) | 3 (Herbicidal ratio of 40% or higher and lower than 70%) | 4 (Herbicidal ratio of 70% or higher and lower than 90%) | 3 (Herbicidal ratio of 40% or higher and lower than 70%) | 0 (Herbicidal ratio of 5% or lower (almost no effect)) | 5 (Herbicidal ratio of 90% or more (almost completely withered))
